According to paper PMC7416039 (Pharmacology Research & Perspectives, 2020):

What was measured:
[1] = biological target: T1, human aldehyde dehydrogenase 2 (ALDH2) (Homo sapiens, UniProt P05091); test: Reversible inhibition of ALDH2; type: biochemical
T1 sequence (P05091 18-517): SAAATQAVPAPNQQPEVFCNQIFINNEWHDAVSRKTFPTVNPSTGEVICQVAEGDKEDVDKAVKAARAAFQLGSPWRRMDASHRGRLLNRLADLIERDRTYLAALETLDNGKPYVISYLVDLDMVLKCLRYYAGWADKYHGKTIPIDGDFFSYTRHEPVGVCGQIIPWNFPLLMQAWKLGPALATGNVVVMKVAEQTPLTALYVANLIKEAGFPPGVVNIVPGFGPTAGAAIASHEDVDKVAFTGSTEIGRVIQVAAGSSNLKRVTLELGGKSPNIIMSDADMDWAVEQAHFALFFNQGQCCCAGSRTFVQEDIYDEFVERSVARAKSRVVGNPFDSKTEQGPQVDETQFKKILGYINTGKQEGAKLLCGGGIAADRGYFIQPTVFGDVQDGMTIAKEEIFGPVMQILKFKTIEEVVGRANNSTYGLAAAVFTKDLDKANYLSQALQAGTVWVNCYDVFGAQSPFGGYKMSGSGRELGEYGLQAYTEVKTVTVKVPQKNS

CYP2C19 [2] = biological target: T2, CYP2C19 (Homo sapiens, UniProt P33261); test: Time-dependent inhibition of CYP isoforms in HLM
CYP2C9 [3] = biological target: T3, CYP2C9 (Homo sapiens, UniProt P11712); test: Time-dependent inhibition of CYP isoforms in HLM
CYP1A2 [4] = biological target: T4, CYP1A2 (Homo sapiens, UniProt P05177); test: Time-dependent inhibition of CYP isoforms in HLM
T4 sequence (P05177 1-516): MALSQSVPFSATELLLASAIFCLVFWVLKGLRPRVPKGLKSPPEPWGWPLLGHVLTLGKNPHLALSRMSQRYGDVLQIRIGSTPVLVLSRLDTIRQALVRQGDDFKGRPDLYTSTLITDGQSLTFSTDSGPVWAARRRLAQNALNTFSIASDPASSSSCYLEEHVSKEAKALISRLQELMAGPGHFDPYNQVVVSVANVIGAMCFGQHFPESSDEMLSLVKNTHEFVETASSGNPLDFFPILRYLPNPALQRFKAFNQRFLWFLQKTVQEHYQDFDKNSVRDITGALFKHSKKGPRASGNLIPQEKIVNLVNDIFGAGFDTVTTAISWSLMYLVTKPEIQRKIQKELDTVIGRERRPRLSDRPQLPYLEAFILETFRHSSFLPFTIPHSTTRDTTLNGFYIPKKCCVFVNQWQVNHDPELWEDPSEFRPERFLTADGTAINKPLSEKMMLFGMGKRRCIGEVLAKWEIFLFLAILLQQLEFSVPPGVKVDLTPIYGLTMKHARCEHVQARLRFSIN

[5] = biological target: T1, human aldehyde dehydrogenase 2 (ALDH2); test: Time-dependent inhibition of ALDH2; type: biochemical; conditions: for Time-dependent inhibition of ALDH2 (residual ALDH2 catalytic activity): 10 μmol/L secnidazole
CYP2D6 [6] = biological target: T5, CYP2D6 (Homo sapiens, UniProt P10635); test: Time-dependent inhibition of CYP isoforms in HLM
CYP2C19 [7] = biological target: T2, CYP2C19; test: Direct inhibition of CYP isoforms in HLM
[8] = Metabolism of secnidazole in human liver microsomes; type: in vitro ADME; conditions: human, human liver microsomes, pH 7.4
human liver microsomes = test: as above; type: in vitro ADME
CYP2E1 [9] = biological target: T6, CYP2E1 (Homo sapiens, UniProt P05181); test: Direct inhibition of CYP isoforms in HLM
CYP2C8 [10] = biological target: T7, CYP2C8 (Homo sapiens, UniProt P10632); test: Time-dependent inhibition of CYP isoforms in HLM
T7 sequence (P10632 1-490): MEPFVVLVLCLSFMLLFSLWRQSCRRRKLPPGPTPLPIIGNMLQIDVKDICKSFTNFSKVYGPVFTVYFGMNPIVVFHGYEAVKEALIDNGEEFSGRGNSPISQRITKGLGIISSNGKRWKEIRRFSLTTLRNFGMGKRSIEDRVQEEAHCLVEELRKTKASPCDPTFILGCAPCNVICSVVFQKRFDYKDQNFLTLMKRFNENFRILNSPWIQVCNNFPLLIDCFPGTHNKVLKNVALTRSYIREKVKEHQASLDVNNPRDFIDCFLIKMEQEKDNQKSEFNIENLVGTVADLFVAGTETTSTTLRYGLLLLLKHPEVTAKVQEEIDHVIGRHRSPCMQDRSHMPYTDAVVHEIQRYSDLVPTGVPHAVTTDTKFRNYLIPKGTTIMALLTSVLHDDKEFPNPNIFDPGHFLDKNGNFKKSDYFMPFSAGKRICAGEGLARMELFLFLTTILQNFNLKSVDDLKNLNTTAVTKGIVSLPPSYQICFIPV

CYP2E1 [11] = biological target: T6, CYP2E1; test: Time-dependent inhibition of CYP isoforms in HLM
[12] = cited from earlier work
[13] = Metabolism of secnidazole in human plasma in vitro; type: in vitro ADME
CYP2B6 [14] = biological target: T8, CYP2B6 (Homo sapiens, UniProt P20813); test: Time-dependent inhibition of CYP isoforms in HLM
T8 sequence (P20813 1-491): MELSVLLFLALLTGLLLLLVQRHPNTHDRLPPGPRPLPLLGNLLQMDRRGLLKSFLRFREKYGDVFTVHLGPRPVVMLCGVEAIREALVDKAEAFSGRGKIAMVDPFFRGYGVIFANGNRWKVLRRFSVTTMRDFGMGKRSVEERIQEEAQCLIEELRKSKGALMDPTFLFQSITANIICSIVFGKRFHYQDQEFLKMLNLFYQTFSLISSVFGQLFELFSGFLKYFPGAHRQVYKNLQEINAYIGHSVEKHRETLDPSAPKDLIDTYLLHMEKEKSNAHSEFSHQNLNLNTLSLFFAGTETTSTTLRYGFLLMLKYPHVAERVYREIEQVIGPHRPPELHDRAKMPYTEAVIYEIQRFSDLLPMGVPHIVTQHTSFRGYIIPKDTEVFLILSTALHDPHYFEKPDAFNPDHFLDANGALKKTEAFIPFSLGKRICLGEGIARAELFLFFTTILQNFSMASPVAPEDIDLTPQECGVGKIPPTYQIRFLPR

CYP2C9 [15] = biological target: T3, CYP2C9; test: Direct inhibition of CYP isoforms in HLM
CYP1A2 [16] = biological target: T4, CYP1A2; test: Direct inhibition of CYP isoforms in HLM
CYP2D6 [17] = biological target: T5, CYP2D6; test: Direct inhibition of CYP isoforms in HLM
CYP2B6 [18] = biological target: T8, CYP2B6; test: Direct inhibition of CYP isoforms in HLM
[19] = test system: cDNA‐expressed human CYP enzymes (Supersomes); test: Metabolism of 1 μmol/L secnidazole by cDNA-expressed human CYP enzymes; type: in vitro ADME; conditions: 0-30 min
CYP2C8 [20] = biological target: T7, CYP2C8; test: Direct inhibition of CYP isoforms in HLM
CYP2A6 [21] = biological target: T9, CYP2A6 (Homo sapiens, UniProt P11509); test: Direct inhibition of CYP isoforms in HLM
T9 sequence (P11509 1-494): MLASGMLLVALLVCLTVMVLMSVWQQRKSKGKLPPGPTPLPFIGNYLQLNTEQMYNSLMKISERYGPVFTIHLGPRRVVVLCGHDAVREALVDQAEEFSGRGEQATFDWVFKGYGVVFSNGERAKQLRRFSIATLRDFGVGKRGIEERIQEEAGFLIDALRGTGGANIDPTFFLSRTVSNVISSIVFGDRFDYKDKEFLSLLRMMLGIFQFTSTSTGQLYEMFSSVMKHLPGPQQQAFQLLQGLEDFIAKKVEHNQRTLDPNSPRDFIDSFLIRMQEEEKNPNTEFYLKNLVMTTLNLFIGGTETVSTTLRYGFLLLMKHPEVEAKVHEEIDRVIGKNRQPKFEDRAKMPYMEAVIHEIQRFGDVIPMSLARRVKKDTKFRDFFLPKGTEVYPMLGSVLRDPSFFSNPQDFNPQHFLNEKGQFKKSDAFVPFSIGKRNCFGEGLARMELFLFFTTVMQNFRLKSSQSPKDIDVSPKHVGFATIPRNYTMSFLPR

CYP2A6 [22] = biological target: T9, CYP2A6; test: Time-dependent inhibition of CYP isoforms in HLM

T5 sequence (P10635 whole entry, canonical isoform): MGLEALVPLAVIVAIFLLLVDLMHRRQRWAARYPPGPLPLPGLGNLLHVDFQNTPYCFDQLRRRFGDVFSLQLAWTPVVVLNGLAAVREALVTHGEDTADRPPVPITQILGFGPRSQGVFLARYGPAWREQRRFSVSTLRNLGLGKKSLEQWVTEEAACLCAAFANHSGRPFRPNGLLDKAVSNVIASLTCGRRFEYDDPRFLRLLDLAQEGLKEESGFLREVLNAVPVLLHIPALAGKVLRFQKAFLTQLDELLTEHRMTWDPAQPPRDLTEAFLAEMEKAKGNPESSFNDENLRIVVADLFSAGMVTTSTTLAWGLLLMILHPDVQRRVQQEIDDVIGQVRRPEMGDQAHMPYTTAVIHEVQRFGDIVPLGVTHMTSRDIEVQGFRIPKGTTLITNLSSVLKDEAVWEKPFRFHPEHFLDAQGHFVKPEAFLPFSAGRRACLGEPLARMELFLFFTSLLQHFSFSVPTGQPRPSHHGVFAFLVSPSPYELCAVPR
T2 sequence (P33261 whole entry, canonical isoform): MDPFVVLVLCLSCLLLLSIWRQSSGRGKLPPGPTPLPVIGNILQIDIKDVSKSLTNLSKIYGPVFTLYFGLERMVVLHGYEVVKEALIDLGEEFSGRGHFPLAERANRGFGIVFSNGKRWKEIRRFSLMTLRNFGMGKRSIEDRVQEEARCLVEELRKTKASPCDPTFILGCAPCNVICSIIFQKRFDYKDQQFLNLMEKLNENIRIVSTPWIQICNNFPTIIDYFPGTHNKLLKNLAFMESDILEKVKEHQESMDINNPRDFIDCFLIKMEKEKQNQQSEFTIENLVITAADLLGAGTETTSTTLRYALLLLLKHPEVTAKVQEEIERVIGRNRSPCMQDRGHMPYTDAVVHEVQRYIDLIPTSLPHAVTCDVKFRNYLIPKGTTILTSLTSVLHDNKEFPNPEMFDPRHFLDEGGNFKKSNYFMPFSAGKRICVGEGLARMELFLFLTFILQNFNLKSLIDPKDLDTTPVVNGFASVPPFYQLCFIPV
T6 sequence (P05181 whole entry, canonical isoform): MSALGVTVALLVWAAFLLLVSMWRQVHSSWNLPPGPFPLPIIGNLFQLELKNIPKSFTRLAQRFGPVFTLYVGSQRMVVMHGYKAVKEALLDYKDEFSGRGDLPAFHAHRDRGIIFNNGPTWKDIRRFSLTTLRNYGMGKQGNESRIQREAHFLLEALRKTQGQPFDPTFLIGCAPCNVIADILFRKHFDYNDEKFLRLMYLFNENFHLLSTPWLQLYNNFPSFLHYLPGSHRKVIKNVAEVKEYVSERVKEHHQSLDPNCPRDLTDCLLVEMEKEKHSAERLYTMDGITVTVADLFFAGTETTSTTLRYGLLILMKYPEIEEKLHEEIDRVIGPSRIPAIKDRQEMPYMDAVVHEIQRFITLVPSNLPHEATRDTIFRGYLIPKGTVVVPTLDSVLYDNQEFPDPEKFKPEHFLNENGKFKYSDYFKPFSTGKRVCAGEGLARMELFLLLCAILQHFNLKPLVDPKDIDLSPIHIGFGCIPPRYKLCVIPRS
T3 sequence (P11712 whole entry, canonical isoform): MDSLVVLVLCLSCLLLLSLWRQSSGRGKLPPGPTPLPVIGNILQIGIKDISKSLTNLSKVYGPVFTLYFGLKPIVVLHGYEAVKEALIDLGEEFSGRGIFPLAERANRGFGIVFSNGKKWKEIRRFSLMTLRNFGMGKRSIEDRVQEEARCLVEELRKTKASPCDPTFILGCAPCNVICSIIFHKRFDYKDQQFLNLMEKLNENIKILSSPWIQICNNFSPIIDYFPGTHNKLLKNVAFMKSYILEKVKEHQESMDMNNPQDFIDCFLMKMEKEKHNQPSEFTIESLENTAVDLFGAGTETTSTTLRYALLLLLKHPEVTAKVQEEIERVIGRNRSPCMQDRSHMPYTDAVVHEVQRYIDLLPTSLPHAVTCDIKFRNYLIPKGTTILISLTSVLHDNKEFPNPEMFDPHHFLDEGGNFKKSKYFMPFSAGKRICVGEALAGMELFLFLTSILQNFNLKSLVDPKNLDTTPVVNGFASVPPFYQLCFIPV

SMILES: O=c1c(-c2ccc(O)cc2)coc2cc(O[C@@H]3O[C@H](CO)[C@@H](O)[C@H](O)[C@H]3O)ccc12 [Daidzin]
- % Remaining ([1]; Daidzin 0.02 μmol/L): 106%
- NADH ([1]; Daidzin 0.02 μmol/L): 132 nmol/min/mg
- % Remaining ([1]; Daidzin 0.05 μmol/L): 102%
- NADH ([1]; Daidzin 0.05 μmol/L): 127 nmol/min/mg
- % Remaining ([1]; Daidzin 0.14 μmol/L): 93%
- NADH ([1]; Daidzin 0.14 μmol/L): 117 nmol/min/mg
- % Remaining ([1]; Daidzin 0.41 μmol/L): 96%
- NADH ([1]; Daidzin 0.41 μmol/L): 120 nmol/min/mg
- % Remaining ([1]; Daidzin 1.2 μmol/L): 76%
- NADH ([1]; Daidzin 1.2 μmol/L): 95 nmol/min/mg
- % Remaining ([1]; Daidzin 3.7 μmol/L): 57%
- NADH ([1]; Daidzin 3.7 μmol/L): 72 nmol/min/mg
- % Remaining ([1]; Daidzin 11 μmol/L): 27%
- NADH ([1]; Daidzin 11 μmol/L): 33 nmol/min/mg
- % Remaining ([1]; Daidzin 33 μmol/L): 16%
- NADH ([1]; Daidzin 33 μmol/L): 20 nmol/min/mg
- % Remaining ([1]; Daidzin 100 μmol/L): 7%
- NADH ([1]; Daidzin 100 μmol/L): 8 nmol/min/mg

SMILES: Cc1ncc([N+](=O)[O-])n1CC(C)O (centres unmarked) [secnidazole]
- IC50 (CYP2C19 [2]): > 1000 µM
- IC50 (CYP2C9 [3]): > 500 µM
- IC50 [1]: 503 µM
- % Remaining ([1]; secnidazole 0.2 μmol/L): 94%
- NADH ([1]; secnidazole 0.2 μmol/L): 117 nmol/min/mg
- % Remaining ([1]; secnidazole 0.5 μmol/L): 90%
- NADH ([1]; secnidazole 0.5 μmol/L): 112 nmol/min/mg
- % Remaining ([1]; secnidazole 1.4 μmol/L): 90%
- NADH ([1]; secnidazole 1.4 μmol/L): 112 nmol/min/mg
- % Remaining ([1]; secnidazole 4.1 μmol/L): 100%
- NADH ([1]; secnidazole 4.1 μmol/L): 125 nmol/min/mg
- % Remaining ([1]; secnidazole 12.3 μmol/L): 110%
- NADH ([1]; secnidazole 12.3 μmol/L): 137 nmol/min/mg
- % Remaining ([1]; secnidazole 37 μmol/L): 96%
- NADH ([1]; secnidazole 37 μmol/L): 120 nmol/min/mg
- % Remaining ([1]; secnidazole 111.1 μmol/L): 79%
- NADH ([1]; secnidazole 111.1 μmol/L): 99 nmol/min/mg
- % Remaining ([1]; secnidazole 333.3 μmol/L): 63%
- NADH ([1]; secnidazole 333.3 μmol/L): 79 nmol/min/mg
- % Remaining ([1]; secnidazole 1000 μmol/L): 32%
- NADH ([1]; secnidazole 1000 μmol/L): 39 nmol/min/mg
- IC50 (CYP1A2 [4]): > 500 µM
- Time-dependent inhibition of ALDH2 (residual ALDH2 catalytic activity) ([5]; preincubation time 0.5): 104
- Time-dependent inhibition of ALDH2 (residual ALDH2 catalytic activity) ([5]; preincubation time 1): 103
- Time-dependent inhibition of ALDH2 (residual ALDH2 catalytic activity) ([5]; preincubation time 2): 101
- Time-dependent inhibition of ALDH2 (residual ALDH2 catalytic activity) ([5]; preincubation time 3): 104
- Time-dependent inhibition of ALDH2 (residual ALDH2 catalytic activity) ([5]; preincubation time 4): 101
- Time-dependent inhibition of ALDH2 (residual ALDH2 catalytic activity) ([5]; preincubation time 8): 110
- Time-dependent inhibition of ALDH2 (residual ALDH2 catalytic activity) ([5]; preincubation time 16): 113
- Time-dependent inhibition of ALDH2 (residual ALDH2 catalytic activity) ([5]; preincubation time 24): 131
- Time-dependent inhibition of ALDH2 (in words) ([5]; preincubated with ALDH2 enzyme and NAD+ from 1 to 24 minutes, secnidazole at 10 or 100 μmol/L): little or no time‐dependent inhibition
- IC50 (CYP2D6 [6]): > 500 µM
- IC50 (CYP2C19 [7]): 3870 µM
- Km [8]: > 6.4 mM
- metabolism in HLMs (in words) (human liver microsomes; concentrations up to 6400 µmol/L): very low metabolism
- Km (human liver microsomes; read-out: Km for M2 formation, rate linear with substrate concentration): > 6.4 mM
- IC50 (CYP2E1 [9]): > 5000 µM
- IC50 (CYP2C8 [10]): > 500 µM
- IC50 (CYP2E1 [11]): > 500 µM
- cumulative urinary excretion of free and conjugated secnidazole [12]: approximately 50%
- metabolism in human plasma in vitro [13]: no evidence of secnidazole metabolism
- IC50 (CYP2B6 [14]): > 500 µM
- IC50 (CYP2C9 [15]): > 5000 µM
- IC50 (CYP1A2 [16]): > 5000 µM
- IC50 (CYP2D6 [17]): > 5000 µM
- direct inhibition (in words) (CYP2D6 [17]; HLM, CYP2D6): some clear concentration‐dependent inhibition at higher concentration
- IC50 (CYP2B6 [18]): > 5000 µM
- direct inhibition (in words) (CYP2B6 [18]; HLM, CYP2B6): some clear concentration‐dependent inhibition at higher concentration
- metabolism in cDNA‐expressed enzymes [19]: did not demonstrate conclusive evidence of any metabolism
- IC50 (CYP2C8 [20]): > 5000 µM
- IC50 (CYP2A6 [21]): > 5000 µM
- direct inhibition (in words) (CYP2A6 [21]; HLM, CYP2A6): some clear concentration‐dependent inhibition at higher concentration
- IC50 (CYP2A6 [22]): > 500 µM
